From EP0183129A1, “Quinolonecarboxylic acid derivatives” (KYORIN PHARMACEUTICAL CO., LTD., priority 1984, dated 1986)
In brackets after ≈: the same amount, converted by molar mass. Counter-ions that a name gives are not always drawn.

Key:
[1] = test system: P. aeruginosa IID 1210; assay: In vitro antibacterial activity, MIC (standard strain); type: cell-based; settings: Pseudomonas aeruginosa, IID1210; P. aeruginosa IID 1210; 10^6 cells/ml; standard strain; read-out: MIC
[2] = test system: S. pyogenes 4372; assay: In vitro antibacterial activity, MIC (clinical isolates); type: cell-based; settings: Streptococcus pyogenes; S. pyogenes 4372; 10^6 cells/ml; clinical isolate; read-out: MIC
[3] = test system: E. coli ML 4707; assay: In vitro antibacterial activity, MIC (standard strain); type: cell-based; settings: Escherichia coli, ML4707; E. coli ML 4707; 10^6 cells/ml; standard strain; read-out: MIC
[4] = test system: S. pneumoniae 3227; assay: In vitro antibacterial activity, MIC (clinical isolates); type: cell-based; settings: Streptococcus pneumoniae; S. pneumoniae 3227; 10^6 cells/ml; clinical isolate; read-out: MIC
[5] = test system: Fusobacterium varium KYA 8501; assay: In vitro antibacterial activity, MIC (standard strain); type: cell-based; settings: Fusobacterium varium, KYA8501, Fusobacterium varium KYA 8501; 10^6 cells/ml; standard strain; read-out: MIC
[6] = test system: S. pneumoniae 15; assay: In vitro antibacterial activity, MIC (clinical isolates); type: cell-based; settings: Streptococcus pneumoniae; S. pneumoniae 15; 10^6 cells/ml; clinical isolate; read-out: MIC
[7] = test system: Salmonella entritidis IID 604; assay: In vitro antibacterial activity, MIC (standard strain); type: cell-based; settings: IID604; Salmonella entritidis IID 604; 10^6 cells/ml; standard strain; read-out: MIC
[8] = test system: S. faecalis 402; assay: In vitro antibacterial activity, MIC (clinical isolates); type: cell-based; settings: Enterococcus faecalis; S. faecalis 402; 10^6 cells/ml; clinical isolate; read-out: MIC
[9] = test system: Staphylococcus aureus 209 P; assay: In vitro antibacterial activity, MIC (standard strain); type: cell-based; settings: Staphylococcus aureus 209 P; 10^6 cells/ml; standard strain; read-out: MIC
[10] = test system: S. epidermidis IID 866; assay: as above; type: cell-based; settings: Staphylococcus epidermidis, IID866, S. epidermidis IID 866; 10^6 cells/ml; standard strain; read-out: MIC
[11] = test system: S. agalactiae 4394; assay: In vitro antibacterial activity, MIC (clinical isolates); type: cell-based; settings: Streptococcus agalactiae; S. agalactiae 4394; 10^6 cells/ml; clinical isolate; read-out: MIC
[12] = test system: S. faecalis IID 682; assay: In vitro antibacterial activity, MIC (standard strain); type: cell-based; settings: Enterococcus faecalis, IID682; S. faecalis IID 682; 10^6 cells/ml; standard strain; read-out: MIC
[13] = test system: Enterobacter cloacae IID 977; assay: as above; type: cell-based; settings: Enterobacter cloacae, IID977, Enterobacter cloacae IID 977; 10^6 cells/ml; standard strain; read-out: MIC
[14] = test system: B. fragilis 25285; assay: as above; type: cell-based, Bacteroides fragilis; settings: Bacteroides fragilis, 25285, B. fragilis 25285; 10^6 cells/ml; standard strain; read-out: MIC
[15] = test system: Bacillus subtilis PCI 219; assay: as above; type: cell-based; settings: PCI219; Bacillus subtilis PCI 219; 10^6 cells/ml; standard strain; read-out: MIC
[16] = test system: Klebsiella pneumoniae KY(GN)6445; assay: as above; type: cell-based; settings: Klebsiella pneumoniae KY(GN)6445; 10^6 cells/ml; standard strain; read-out: MIC
[17] = test system: S. marcescens GN 7577; assay: as above; type: cell-based; settings: Serratia marcescens, GN7577; S. marcescens GN 7577; 10^6 cells/ml; standard strain; read-out: MIC
[18] = test system: Streptococcus pyogenes S-8; assay: as above; type: cell-based; settings: S8; Streptococcus pyogenes S-8; 10^6 cells/ml; standard strain; read-out: MIC
[19] = test system: S. pyogenes 3130; assay: In vitro antibacterial activity, MIC (clinical isolates); type: cell-based; settings: Streptococcus pyogenes, read-out: MIC
[20] = test system: S. pyogenes 3102; assay: as above; type: cell-based; settings: Streptococcus pyogenes; S. pyogenes 3102; 10^6 cells/ml; clinical isolate; read-out: MIC
[21] = test system: K. pneumoniae 1-220S; assay: In vitro antibacterial activity, MIC (standard strain); type: cell-based; settings: Klebsiella pneumoniae, 1220S; K. pneumoniae 1-220S; 10^6 cells/ml; standard strain; read-out: MIC
[22] = test system: S. agalactiae 4470; assay: In vitro antibacterial activity, MIC (clinical isolates); type: cell-based; settings: Streptococcus agalactiae; S. agalactiae 4470; 10^6 cells/ml; clinical isolate; read-out: MIC
[23] = test system: S. agalactiae 4468; assay: as above; type: cell-based; settings: Streptococcus agalactiae; S. agalactiae 4468; 10^6 cells/ml; clinical isolate; read-out: MIC
[24] = test system: S. pneumoniae IID 552; assay: In vitro antibacterial activity, MIC (standard strain); type: cell-based; settings: Streptococcus pneumoniae, IID552; S. pneumoniae IID 552; 10^6 cells/ml; standard strain; read-out: MIC
[25] = test system: S. faecalis 49; assay: In vitro antibacterial activity, MIC (clinical isolates); type: cell-based; settings: Enterococcus faecalis; S. faecalis 49; 10^6 cells/ml; clinical isolate; read-out: MIC
[26] = test system: E. coli ATCC 10536; assay: In vitro antibacterial activity, MIC (standard strain); type: cell-based; settings: Escherichia coli, ATCC10536; E. coli ATCC 10536; 10^6 cells/ml; standard strain; read-out: MIC
[27] = test system: S. aureus Smith; assay: as above; type: cell-based, Staphylococcus aureus; settings: Staphylococcus aureus; S. aureus Smith; 10^6 cells/ml; standard strain; read-out: MIC
[28] = test system: Yersinia enterocolitica IID 981; assay: as above; type: cell-based; settings: IID981; Yersinia enterocolitica IID 981; 10^6 cells/ml; standard strain; read-out: MIC
[29] = test system: Clostridium perfringens KYA 13123; assay: microbe, parasite or virus in culture; type: cell-based; settings: KYA13123
[30] = test system: Acinetobacter anitratus IID 876; assay: In vitro antibacterial activity, MIC (standard strain); type: cell-based; settings: Acinetobacter calcoaceticus, IID876, Acinetobacter anitratus IID 876; 10^6 cells/ml; standard strain; read-out: MIC
[31] = test system: S. agalactiae 4342; assay: In vitro antibacterial activity, MIC (clinical isolates); type: cell-based; settings: Streptococcus agalactiae; S. agalactiae 4342; 10^6 cells/ml; clinical isolate; read-out: MIC

CCNCC1CCN(c2c(F)cc3c(=O)c(C(=O)O)cn(C4CC4)c3c2Cl)C1 (stereo not drawn) [Example 13, 8-Chloro-l-cyclorpropyl-6-fluoro-1,4-dihydro-7-(3-ethylaminomethyl-l-pyrrolidinyl)-4-oxo-3-quinolinecarboxylic acid]
MIC [1]: 1.56 µg/mL (≈ 3.82 µM)
MIC [2]: 0.05 µg/mL (≈ 0.123 µM)
MIC [3]: 0.025 µg/mL (≈ 0.0613 µM)
MIC [4]: 0.05 µg/mL (≈ 0.123 µM)
MIC [5]: 0.39 µg/mL (≈ 0.956 µM)
MIC [6]: 0.025 µg/mL (≈ 0.0613 µM)
MIC [7]: 0.05 µg/mL (≈ 0.123 µM)
MIC [8]: 0.1 µg/mL (≈ 0.245 µM)
MIC [9]: 0.0125 µg/mL (≈ 0.0306 µM)
MIC [10]: 0.025 µg/mL (≈ 0.0613 µM)
MIC [11]: 0.1 µg/mL (≈ 0.245 µM)
MIC [12]: 0.05 µg/mL (≈ 0.123 µM)
MIC [13]: 0.1 µg/mL (≈ 0.245 µM)
MIC [14]: 0.05 µg/mL (≈ 0.123 µM)
MIC [15]: 0.0125 µg/mL (≈ 0.0306 µM)
MIC [16]: 0.05 µg/mL (≈ 0.123 µM)
MIC [17]: 0.78 µg/mL (≈ 1.91 µM)
MIC [18]: 0.05 µg/mL (≈ 0.123 µM)
MIC [19]: 0.05 µg/mL (≈ 0.123 µM)
MIC [20]: 0.05 µg/mL (≈ 0.123 µM)
MIC [21]: 0.1 µg/mL (≈ 0.245 µM)
MIC [22]: 0.05 µg/mL (≈ 0.123 µM)
MIC [23]: 0.05 µg/mL (≈ 0.123 µM)
MIC [24]: 0.05 µg/mL (≈ 0.123 µM)
MIC [25]: 0.05 µg/mL (≈ 0.123 µM)
MIC [26]: 0.025 µg/mL (≈ 0.0613 µM)
MIC [27]: 0.025 µg/mL (≈ 0.0613 µM)
MIC [28]: 0.1 µg/mL (≈ 0.245 µM)
MIC [29]: 0.05 µg/mL (≈ 0.123 µM)
MIC [30]: 0.05 µg/mL (≈ 0.123 µM)
MIC [31]: 0.05 µg/mL (≈ 0.123 µM)

CCNCC1CCN(c2cc3c(cc2F)c(=O)c(C(=O)O)cn3C2CC2)C1.Cl (stereo not drawn) [Example 7, 1-Cyclopropyl-7-(3-ethylaminomethyl-1-pyrrolidinyl)-6-fluoro-1,4-dihydro-4-oxo-3-quinolinecarboxylic acid hydrochloride]
MIC [1]: 3.13 µg/mL
MIC [2]: 0.2 µg/mL
MIC [3]: 0.05 µg/mL
MIC [4]: 0.39 µg/mL
MIC [5]: 12.5 µg/mL
MIC [6]: 0.39 µg/mL
MIC [7]: 0.2 µg/mL
MIC [8]: 0.78 µg/mL
MIC [9]: 0.1 µg/mL
MIC [10]: 0.05 µg/mL
MIC [11]: 0.39 µg/mL
MIC [12]: 0.39 µg/mL
MIC [13]: 0.39 µg/mL
MIC [14]: 25 µg/mL
MIC [15]: 0.025 µg/mL
MIC [16]: 0.1 µg/mL
MIC [17]: 6.25 µg/mL
MIC [18]: 0.39 µg/mL
MIC [19]: 0.2 µg/mL
MIC [20]: 0.2 µg/mL
MIC [21]: 0.2 µg/mL
MIC [22]: 0.39 µg/mL
MIC [23]: 0.39 µg/mL
MIC [24]: 0.39 µg/mL
MIC [25]: 0.78 µg/mL
MIC [26]: 0.05 µg/mL
MIC [27]: 0.1 µg/mL
MIC [28]: 0.39 µg/mL
MIC [29]: 0.2 µg/mL
MIC [30]: 0.78 µg/mL
MIC [31]: 0.39 µg/mL

CNCC1CCN(c2cc3c(cc2F)c(=O)c(C(=O)O)cn3C2CC2)C1 (stereo not drawn) [Example 9, 1-Cyclopropyl-6-fluoro-1,4-dihydro-7-(3-methylaminomethyl-l-pyrrolidinyl)-4-oxo-3-quinolinecarboxylic acid hydrochloride]
MIC [1]: 3.13 µg/mL
MIC [2]: 0.2 µg/mL
MIC [3]: 0.1 µg/mL
MIC [4]: 0.39 µg/mL
MIC [5]: 25 µg/mL
MIC [6]: 0.39 µg/mL
MIC [7]: 0.2 µg/mL
MIC [8]: 0.78 µg/mL
MIC [9]: 0.2 µg/mL
MIC [10]: 0.1 µg/mL
MIC [11]: 0.78 µg/mL
MIC [12]: 0.39 µg/mL
MIC [13]: 0.39 µg/mL
MIC [14]: 25 µg/mL
MIC [15]: 0.05 µg/mL
MIC [16]: 0.1 µg/mL
MIC [17]: 6.25 µg/mL
MIC [18]: 0.2 µg/mL
MIC [19]: 0.1 µg/mL
MIC [20]: 0.1 µg/mL
MIC [21]: 0.39 µg/mL
MIC [22]: 0.39 µg/mL
MIC [23]: 0.39 µg/mL
MIC [24]: 0.39 µg/mL
MIC [25]: 0.39 µg/mL
MIC [26]: 0.1 µg/mL
MIC [27]: 0.39 µg/mL
MIC [28]: 0.39 µg/mL
MIC [29]: 1.56 µg/mL
MIC [30]: 0.78 µg/mL
MIC [31]: 0.39 µg/mL
